According to US6716597B2, “Methods and products for regulating cell motility” (priority 2000, dated 2004):

Tested on: Rat2 fibroblasts
Assay: Time-lapse videomicroscopy random migration assay (cell speed, polarity)
Type: cell-based, rat
Conditions: Rat2 cells
Method: Cells adapted to microscopy media (Life Technologies, Rockville, Md.) as described above were trypsinized, counted, and resuspended in microscopy media at 7.14×10^3 cells/mL. 1.4 mL (10,000 cells) of this cell suspension was added to a ΔT dish (Bioptechs Inc., Butler, Pa.) that had previously been coated overnight with 10 μg/mL fibronectin (Becton Dickinson) at 4° C. and then blocked with lmg/mL cell-culture-grade BSA (Sigma, St. Louis, Mo.). Cells were allowed to attach and spread for 1 hour at 37° C. before movies were initiated. 10x phase contrast movies were 4.5 hours long with a frame taken every five minutes. A custom time-lapse collection script written in IPLabs was used to automate microscope and camera function. Light was shutter controlled. […] Cell paths were generated from the calculated centroid positions and parameters (speed and membrane flow) were calculated from the resulting path file. Speed was calculated using the Central Difference Method in DIAS, which is equivalent to a root mean squared calculation. […]
Rat 2 cells were exposed to 0, 5 nM, 25 nM, 50 nM, or 500 nM cytochalasin D and motility was measured. One set of cells received no cytochalasin D. Other cells received a low dose of cytochalasin D (e.g. 5 nM or 25 nM) or a high dose of cytochalasin D. (e.g. 500 nM) The motility of the treated cells was assessed using the motility assay described above.

Question: With `C=C1[C@@H](C)[C@H]2[C@H](Cc3ccccc3)NC(=O)[C@]23[C@H](OC(C)=O)/C=C/[C@@](C)(O)C(=O)[C@@H](C)C/C=C/[C@H]3[C@@H]1O` [cytochalasin D, reference compound] as the compound, how does the cell speed (25 nM (low dose)) read?
Answer: The cell speed was “increased”.

Question: What about the cell speed (500 nM (high dose)) of the same compound?
Answer: The cell speed was “decreased”.
